Test results: ChEMBL document CHEMBL1133844, “2-Benzyl-3,4-iminobutanoic acid as inhibitor of carboxypeptidase A” (Bioorg Med Chem Lett, 2001)

Assay: The compound was tested for the inhibition of Carboxypeptidase A

`O=C(O)[C@H](Cc1ccccc1)C1CC1` and `O=C(O)C(Cc1ccccc1)C1CC1` (racemic) are within 1.5-fold of each other in Ki: 803 µM for the first, 792 µM for the second.

Going from `O=C(O)C(Cc1ccccc1)c1c[nH]cn1` (racemic) to `O=C(O)[C@@H](Cc1ccccc1)[C@H]1CN1`, the Ki rises from 0.8 µM to 120 µM (150-fold).

Going from `O=C(O)[C@H](Cc1ccccc1)[C@@H]1CN1` to `O=C(O)[C@H](Cc1ccccc1)[C@H]1CN1` (single isomer, unassigned), the Ki rises from 35 µM to 230 µM (6.6-fold). The first binds more tightly here.

`O=C(O)[C@@H](Cc1ccccc1)C1CC1` and `O=C(O)[C@@H](Cc1ccccc1)[C@@H]1CN1` (single isomer, unassigned) are within 1.5-fold of each other in Ki: 646 µM for the first, 510 µM for the second.
